The text below walks through data of patent EP0494777A1, “(S)-11-Hydroxy-10-methyl aporphine and pharmaceutical compositions containing it” (BRITISH TECHNOLOGY GROUP LTD, priority 1991, dated 1992).

In general, inhibition refers to the share of the control response that was lost under treatment. As a reminder, the Ki is the equilibrium dissociation constant of an inhibitor or competing ligand from its target. Read a low Ki as higher affinity.

Assay [1] concerns the target T1, guinea pig ileum (Cavia porcellus, UniProt A0A286Y074).
T1 sequence (A0A286Y074 1-421): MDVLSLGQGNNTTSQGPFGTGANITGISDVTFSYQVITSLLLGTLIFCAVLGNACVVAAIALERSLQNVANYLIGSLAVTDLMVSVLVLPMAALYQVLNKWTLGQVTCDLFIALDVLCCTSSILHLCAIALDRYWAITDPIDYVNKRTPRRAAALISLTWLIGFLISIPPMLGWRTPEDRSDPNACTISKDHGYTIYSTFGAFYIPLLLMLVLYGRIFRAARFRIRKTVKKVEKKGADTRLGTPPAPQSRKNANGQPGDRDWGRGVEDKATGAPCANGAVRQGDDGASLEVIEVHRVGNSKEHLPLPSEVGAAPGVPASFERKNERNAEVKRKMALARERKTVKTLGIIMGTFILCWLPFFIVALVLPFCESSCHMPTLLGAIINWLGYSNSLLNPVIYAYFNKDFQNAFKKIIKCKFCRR
Kind of assay: Single shock stimulation of guinea pig ileum: inhibition of longitudinal muscle contractions, or antagonism of the inhibitory action of 8-OH DPAT. The conditions noted are these: for washings needed to return responses to induced electrical stimulation to control levels: after inhibition of contractions. On the procedure: Guinea pigs were anaesthetized with 35 mg of pentobarbital Na, administered i.p. and then sacrificed. Two centimeters of ileum, 10 cm from the cecum, was placed in Krebs-Ringer solution, and longitudinal muscle contractions were measured using a Stateham GT-03 force transducer. Contractions were recorded using a Beckman R-611 recorder.

Assay [2] concerns the target T2, 5-HT1A sites (Rattus norvegicus, UniProt P19327).
T2 construct: 5% (w/v) homogenized rat cortex; from tissue; host or cells: rat cortex membranes
T2 sequence (P19327 1-422): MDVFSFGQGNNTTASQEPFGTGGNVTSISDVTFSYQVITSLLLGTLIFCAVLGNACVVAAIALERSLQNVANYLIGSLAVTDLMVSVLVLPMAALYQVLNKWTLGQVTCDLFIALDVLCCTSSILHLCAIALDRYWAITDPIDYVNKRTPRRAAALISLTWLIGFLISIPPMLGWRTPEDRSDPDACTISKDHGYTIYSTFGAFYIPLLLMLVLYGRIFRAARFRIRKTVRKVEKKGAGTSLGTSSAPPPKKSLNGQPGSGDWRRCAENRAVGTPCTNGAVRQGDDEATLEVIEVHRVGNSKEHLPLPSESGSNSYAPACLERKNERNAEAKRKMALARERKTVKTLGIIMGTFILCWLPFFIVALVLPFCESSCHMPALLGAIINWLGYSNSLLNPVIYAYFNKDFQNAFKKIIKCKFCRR
Kind of assay: Radioligand binding vs. [³H]8-OH DPAT in rat cortex membranes. How it is done:
Binding studies to determine the affinity of both the (R) and (S) enantiomer for 5-HT1A sites were conducted as previously described by Cannon et al., ibid. Rat cortex was homogenized in ice cold solution, centrifuged to isolate the membranes, and then washed. […] Non-specific binding was defined as binding remaining in the presence of 10 µM of 5-HT. […] The results are presented below in the Table together with those obtained in the studies using guinea pig ilea.

`CN1C2CCC1CC(OC(=O)C(CO)c1ccccc1)C2` (racemic) [atropine sulphate, reference compound]: the “effect on contractions induced by transmural single shock stimulation” value in assay [1] is “inhibited”.

For `CCCN(CCC)C1CCc2cccc(O)c2C1` (stereo not drawn) [8-OH DPAT, 8-hydroxy-2-di-n-propylaminotetralin, reference compound], the “washings needed to return responses to induced electrical stimulation to control levels” value in assay [1] is “Two or three”. Also, in assay [1] (read-out: maximal inhibition of contractions induced by transmural stimulation), the inhibition at 0.06 µM is around 35%.

In turn, `Cc1ccc2c(c1O)-c1cccc3c1[C@@H](C2)N(C)CC3` [(R), (R)-11-hydroxy-10-methylaporphine, reference compound] registered a Ki in assay [2] of 0.0031 µM. Further, the “washings needed to return responses to induced electrical stimulation to control levels” value in assay [1] was “Two or three”. Also, in assay [1] (read-out: Single Shock stimulation of guinea pig ileum ED50 for inhibition of contractions, transmural single shock stimulation (0.1 Hz)), the EC50 worked out at 0.05 µM. The “ED50 for antagonism of inhibition of contraction by 8-OH DPAT” value in assay [1] (single shock stimulation of guinea pig ileum, concentration of 8-OH-DPAT 0.06 μM) is “inactive”.

`Cc1ccc2c(c1O)-c1cccc3c1[C@H](C2)N(C)CC3.Cl` [(S), (S)-11-Hydroxy-10-methylaporphine hydrochloride]: the affinity in assay [2], expressed as Ki, was 0.039 µM. For the same compound, in assay [1] (1 µM), the “effect on ileum stimulating properties of nicotine” value is given as “did not alter”, the “effect on ileum stimulating properties of potassium chloride” value was “did not alter” and the “effect on resting tone of the ileum” value is “did not alter”. Moreover, the IC50 in assay [1] (read-out: ED50 for antagonism of inhibition of contraction by 8-OH DPAT, single shock stimulation of guinea pig ileum, concentration of 8-OH-DPAT 0.06 μM) was found to be 0.03 µM. The “antagonism of inhibition of contractions by the (R)-enantiomer” value in assay [1] (single shock stimulation of cholinergic neurons) is given as “antagonized”. In assay [1] (transmural single shock stimulation (0.1 Hz)), the “Single Shock stimulation of guinea pig ileum ED50 for inhibition of contractions” value is “inactive”. The “duration of repeated washings required to re-establish sensitivity of the preparation to the (R)-enantiomer or 8-OH DPAT” value in assay [1] (washout) lay within 2 to 3 h.
